Results taken from article PMC6095874, “Discovery of cationic nonribosomal peptides as Gram-negative antibiotics through global genome mining” (Nature Communications, 2018).
≈ marks a conversion by molar mass, not a printed value. Where two headings read alike, the source gives them in different places. Where a SMILES comes first, the peptide text is derived from it. Bridges are numbered along the chain shown (N, C = ends). [ ]: non-standard residue; d: D form. The star is where a group is joined. ξ: configuration not given here. Hexanoyl(4ξ-Me) = CCC(C)CCC(=O)*; dOrn = NCCC[C@@H](N)C(=O)O; Orn = NCCC[C@H](N)C(=O)O

Assays:
[1] = test system: Colistin-resistant E. coli (E. coli ATCC 25922 carrying mcr-1); test: MIC by broth microdilution; format: cell-based, Escherichia coli; details: MHB, 37 °C, 24 h
Description: (§1) MIC was determined by broth microdilution according to CLSI guidelines. The test medium for most species was Mueller–Hinton broth (MHB). Bacteria were grown overnight to early stationary phase and adjusted in MHB to 5.0 × 10^5 c.f.u. mL^−1 in the wells of 96-well microtiter plates (Falcon® 96-Well Flat-Bottom Microplate, Tissue Culture-Treated), mixed with varying concentrations of test compounds and incubated at 37 °C for 24 h. Cell growth was evaluated by measuring the optical density at 595 nm (Thermo Scientific Multiskan FC multiplate photometer) (Waltham, MA, USA), and the MIC was defined as the lowest compound concentration at which no bacterial growth was observed. MHBs containing 10% fetal bovine serum (Gibco), 21 mM MgCl, or 1.0 mg mL^−1 LPS (lipopolysaccharides from E. coli O55:B5, Sigma-Aldrich) was used to test their inhibitory effects.

[2] = test system: E. coli TOP10 cells; test: Time-kill assay; format: cell-based, Escherichia coli
Description: An overnight culture of E. coli TOP10 cells was diluted 1:10,000 in MHB and incubated at 37 °C with agitation at 180 rpm for 2 h (early exponential). The bacteria were then challenged with brevicidine (20 μg mL^−1), laterocidine (20 μg mL^−1), or polymyxin B (10 μg mL^−1) at ten times the MIC at room temperature without shaking. An untreated sample of cells was used as a negative control. At intervals, 10 μL aliquots were removed, centrifuged at 10,000 × g for 1 min and resuspended in 1.0 mL of sterile PBS. Tenfold serially diluted suspensions were plated on MHB agar plates and incubated at 37 °C overnight. Colonies were counted and the number of c.f.u. per mL was calculated. For analysis of lysis, 300 μL of culture (OD600 = 1.0) were treated with antibiotics at ten times the MIC for 24 h. Experiments were performed in triplicate.

[3] = test system: rabbit erythrocytes; details: concentrations up to 128 μg mL^−1, 2% (v/v) rabbit erythrocytes in PBS, 1 h, 37 °C, absorbance 570 nm, vs 10% Triton X-100
Description: Hemolytic activity was determined with red blood cells freshly isolated from healthy rabbits. […] The cells were incubated for 1 h at 37 °C and centrifuged for 5 min at 10,000 × g. The supernatant was transferred to a 96-well plate and the absorbance was measured at a wavelength of 570 nm with a Thermo Scientific Multiskan FC multiplate photometer. The absorbance relative to the positive control, which was treated with 10% Triton X-100, was defined as the percentage of hemolysis.

[4] = test system: Escherichia coli ATCC 25922; test: microbe, parasite or virus in culture; format: cell-based; details: Supplementary Table 1; Ec = Escherichia coli ATCC 25922
Description: as §1

[5] = test system: K. pneumoniae NRRL-B-3521; format: cell-based, Klebsiella pneumoniae; details: NRRL-B-3521, 24 h
Description: as §1

[6] = test system: Candida albicans; format: cell-based; details: 24 h
[7] = test system: E. cloacae NRRL-B-425; format: cell-based, Enterobacter cloacae; details: NRRL-B-425, 24 h
Description: as §1

[8] = test system: E. coli ATCC 25922; test: Resistance acquisition during serial passaging; format: cell-based, Escherichia coli; details: subinhibitory concentrations, 30-day period, MHB, 37 °C, quadruplicate
Description: (§2) E. coli ATCC 25922 was inoculated into MHB overnight at 37 °C with continuous shaking. Cells were diluted 10,000 times in MHB to about 1 × 10^6 c.f.u. mL^−1. Ten µL aliquots were drawn to a 96-well plate containing 90 µL of serially diluted brevicidine, laterocidine, and ciprofloxacin, at final concentrations of 0.5×, 1×, 1.5×, 2×, and 4× MIC. […] Plates with bacteria were incubated at 37 °C without shaking. […] This process was repeated for 30 days, and the final MIC was confirmed by the same antibacterial assay as the one described above. The experiment was performed in quadruplicate, and on each day, the sample that developed the highest resistance was measured to plot the curve. For single-step resistance, E. coli ATCC 25922 cells at 10^8 c.f.u. were plated onto Mueller–Hinton agar containing 4× MIC of brevicidine.

[9] = test system: E. coli ATCC 25922; details: 10^8 c.f.u. plated on Mueller–Hinton agar at four times the MIC, 48 h, 37 °C
Description: as §2

[10] = test system: Human HeLa cells; details: concentrations up to 128 μg mL^−1, 48 h, 37 °C, MTT, absorbance 570 nm
Description: Human HeLa cells were used in the assay. Ninety μL of 1 × 10^5 mL^−1 cells were placed into the wells of 96-microwell plates. After 12 h, 10 μL of a medium containing test compounds at various concentrations were added to the cells which were then incubated at 37 °C for 48 h. Afterward, the supernatant was removed and 20 μL of MTT (3-(4,5-Dimethylthiazol-2-yl)-2,5-Diphenyltetrazolium Bromide) (2.5 mg mL^−1) in PBS were added to each well. After incubation at 37 °C for 3 h, 80 μL of dimethyl sulfoxide (DMSO) were added to each well and incubated for an additional 15 min. The absorbance was then measured at 570 nm with a Thermo Scientific Multiskan FC multiplate photometer.

[11] = test system: Enterobacter cloacae NRRL-B-413; test: MIC by broth microdilution; format: cell-based; details: Supplementary Table 1; En = Enterobacter cloacae NRRL-B-413
Description: as §1

[12] = test system: Acinetobacter baumannii; test: MIC by broth microdilution; format: cell-based; details: Supplementary Table 1
Description: as §1

[13] = test system: Klebsiella pneumoniae NRRL-B-408; test: MIC by broth microdilution; format: cell-based; details: Supplementary Table 1; Kp = Klebsiella pneumoniae NRRL-B-408
Description: as §1

[14] = test system: Bacillus subtilis 168; test: MIC by broth microdilution; format: cell-based; details: Supplementary Table 1; Bs = B. subtilis 168
Description: as §1

[15] = Peptide binding to LPS by isothermal titration calorimetry; set-up: species or system Escherichia coli; details: 37 °C
Description: Microcalorimetric experiments of peptide binding to LPS were performed on an MCS isothermal titration calorimeter (Microcal, Northampton, MA) at 37 °C. LPS was prepared as a 50 µM aqueous suspension in 20 mM HEPES buffer (pH 7.0) by suspension, sonication, and temperature cycling between 5 and 70 °C. This suspension was stored at 4 °C overnight prior to use. Aliquots of 100 µM peptide solutions (brevicidine and polymyxin B) were prepared in the same buffer and all solutions were degassed prior to use by stirring under vacuum for 5 min at 37 °C. After thermal equilibration, 5 µL aliquots of the peptide solution were added every 3 min into the lipid-containing cell at 37 °C with constant stirring. The change in heat during the titration steps was registered in real time and raw data were processed using the Origin® 7 software provided with the instrument. In control experiments, the corresponding peptide solution (or LPS solution) was injected into the buffer without LPS (or without peptide).

Structure (SMILES): CCC(C)CCC(=O)N[C@H](CC(N)=O)C(=O)N[C@H](Cc1ccc(O)cc1)C(=O)N[C@H](Cc1c[nH]c2ccccc12)C(=O)N[C@H](CCCN)C(=O)N[C@@H](CCCN)C(=O)NCC(=O)N[C@H](CCCN)C(=O)N[C@@H](Cc1c[nH]c2ccccc12)C(=O)N[C@@H]1C(=O)N[C@@H]([C@@H](C)CC)C(=O)NCC(=O)N[C@@H](CO)C(=O)O[C@@H]1C (stereo partly drawn) [Compound 1, brevicidine] ({Hexanoyl(4ξ-Me)}-[dN][dY][dW][dOrn][Orn]G[dOrn]WTIGS; ester 9-C)
- MIC [1]: 2 µg/mL (≈ 1.32 µM)
- bactericidal action against E. coli ([2]; as revealed by growth kinetics, time-kill assay and lysis assay): bactericidal
- cell viability in time-kill assay ([2]; ten times the MIC, early exponential cells, room temperature, c.f.u. counts, triplicate): significant reduction after 30 min
- lysis of erythrocytes (hemolysis) [3]: neither caused the lysis of erythrocytes
- MIC, Ec [4]: 2 µg/mL (≈ 1.32 µM)
- MIC [5]: 4 µg/mL (≈ 2.63 µM)
- MIC [6]: >64 µg/mL
- MIC [7]: 2 µg/mL (≈ 1.32 µM)
- resistance development during serial passaging [8]: did not develop resistance
- single-step resistance [9]: did not develop resistance
- single-step resistance ([9]; listed as brevicidine): no resistant colonies were detected
- toxicity against the human cell line HeLa [10]: nor showed significant toxicity
- MIC, En [11]: 2 µg/mL (≈ 1.32 µM)
- MIC, Ab [12]: 16 µg/mL (≈ 10.5 µM)
- MIC, Kp [13]: 2 µg/mL (≈ 1.32 µM)
- MIC, Bs [14]: 32 µg/mL (≈ 21.1 µM)
- binding to LPS (ITC) ([15]; 20 mM HEPES pH 7.0): strong binding to LPS
- Kd ([15]; ITC, 50 µM LPS in 20 mM HEPES pH 7.0, 100 µM peptide, read-out: dissociation constant Kd for LPS): 6.5 µM
